Measurements reported in patent publication US20240018611A1, “IMMUNE MOLECULE VIRUS PARTICLE DETECTION KIT” (priority 2021, published 2024).

Columns and labels:
HBV [1] = experiment: HBV DNA in supernatant of ETV-treated HepG2.2.15 cells (immune capture of virus particles + qPCR); type: cell-based, hepatitis B virus (HBV)
Procedure: (§1) The inventor selects the supernatant of HBV-secreting cells ([…] and HepAD38) for testing and verification. HepG2.2.15 and HepAD38 are the two cell lines that are commonly used in the laboratory to stably express HBV, and entecavir (ETV) is the first-line drug in clinical treatment of hepatitis B at present. The inventor uses different concentration gradients of ETV (0.1 μM, 1 μM, 10 μM, PBS as control group). Then, the virus particles are captured by virus particle-antibody (the envelope PreS1 monoclonal antibody and the core particle HBc monoclonal antibody)-biotin-streptavidin-magnetic beads, and the genomic DNA of HBV in the corresponding virus particles is detected.
(§2) In order to study the dynamic changes of HBV DNA with different components, two cell lines, HepG2.2.15 and HepAD38, which stably express HBV, are pretreated with different concentration gradients of ETV (0.1 μM, 1 μM, 10 μM and a PBS control group), and the supernatant is discarded after 24 hours, and replaced with fresh Dulbecco's modified eagle medium (DMEM) and ETV with different concentration gradients. After 72 hours, the supernatant is transferred to an EP tube, and the virus particles in the supernatant are captured by PreS1 antibody-magnetic beads and HBc antibody-magnetic beads respectively, and the captured products are detected by qPCR.
The above research results mean that the capture method can separate and capture virus particles in cell supernatant. […] The same conclusion is obtained in HepAD38 cell experiment (FIGS. 10A-10B).

HBV [2] = experiment: HBV DNA in supernatant of ETV-treated HepAD38 cells (immune capture of virus particles + qPCR); type: cell-based, hepatitis B virus (HBV)
Procedure: as §1, §2

[3] = ETV 0.1 μM, 1 μM, 10 μM, PBS control, antibody-biotin-streptavidin-magnetic bead capture, FIGS. 2A-2B

C=C1[C@H](CO)[C@@H](O)C[C@@H]1n1cnc2c(=O)[nH]c(N)nc21 [ETV, entecavir]
viral genomic DNA (total, complete virus particles, core particles) in cell supernatant versus ETV concentration (HBV [1]; [3]): The higher the concentration of ETV, the lower the viral genomic DNA detected by the three methods
copies of HBV DNA in the supernatant (HBV [1]; ETV 0.1 μM, 1 μM, 10 μM, supernatant after 72 hours, PreS1/HBc antibody-magnetic bead capture, FIGS. 9A-9B): decreased in a dose-dependent manner
total HBV genomic DNA, complete virus particle genomic DNA and virus core particle DNA over time (HBV [1]; ETV 1 uM, FIGS. 2C-2D): all decreased rapidly in two days
viral genomic DNA (total, complete virus particles, core particles) in cell supernatant versus ETV concentration (HBV [2]; [3]): The higher the concentration of ETV, the lower the viral genomic DNA detected by the three methods
total HBV genomic DNA, complete virus particle genomic DNA and virus core particle DNA over time (HBV [2]; ETV 1 uM, FIGS. 2C-2D): all decreased rapidly in two days
